Data: patent US10577332B2, “Tetrazole derivatives” (Hoffmann-La Roche Inc., priority 2015, dated 2020)

Experiments:
[1] = target: T1, human EAAT3 (Homo sapiens, UniProt P43005); assay: FLIPR Membrane Potential (FMP) assay; assay type: cell-based; conditions: HEK-293 cells stably expressing human EAAT3; antagonist applied 15 min before L-glutamate at EC80; Kb by Cheng-Prusoff from IC50
T1 construct: expressed in transfected cells
T1 sequence (P43005 1-524): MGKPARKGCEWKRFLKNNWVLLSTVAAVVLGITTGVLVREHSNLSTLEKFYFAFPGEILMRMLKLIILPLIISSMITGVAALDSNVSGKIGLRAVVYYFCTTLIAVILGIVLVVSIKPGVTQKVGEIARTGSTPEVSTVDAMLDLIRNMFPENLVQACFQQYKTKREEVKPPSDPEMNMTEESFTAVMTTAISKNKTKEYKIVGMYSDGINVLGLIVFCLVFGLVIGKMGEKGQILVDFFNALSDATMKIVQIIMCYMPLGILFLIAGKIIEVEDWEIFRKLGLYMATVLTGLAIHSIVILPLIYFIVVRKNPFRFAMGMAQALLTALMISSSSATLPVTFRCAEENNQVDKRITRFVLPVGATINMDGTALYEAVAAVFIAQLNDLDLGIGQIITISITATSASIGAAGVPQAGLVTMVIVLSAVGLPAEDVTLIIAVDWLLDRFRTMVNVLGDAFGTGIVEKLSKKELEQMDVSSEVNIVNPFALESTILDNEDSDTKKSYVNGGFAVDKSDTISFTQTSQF
Procedure, shortened: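 HEK-293 cells stably expressing human EAAT3, loaded with membrane-potential dye 1 h at 37 °C in Krebs buffer pH 7.4. Antagonists added 15 min before L-glutamate at EC80; peak fluorescence minus basal read on FLIPR at room temperature. Kb derived from IC50 via Cheng-Prusoff.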

In the case of `CC1(NC(=O)c2cc(-c3ccc(F)cc3)cc(-n3nnnc3C(C)(C)C)c2)CCS(=O)(=O)C1` (racemic) [Example 95, (RS)-3-(5-tert-Butyltetrazol-1-yl)-5-(4-fluorophenyl)-N-(3-methyl-, 1-dioxothiolan-3-yl)-benzamide], the melting point was 258.5 °C and the Kb [1] was 0.35 µM.

In the case of `CC(C)(C)NC(=O)c1cc(-c2ccc(Cl)cc2)cc(-n2cnnn2)c1` [Example 12, N-tert-Butyl-3-(4-chlorophenyl)-5-(tetrazol-1-yl)-benzamide], the melting point was 199 °C and the Kb [1] was 0.35 µM.

`CC(C)c1nnnn1-c1cc(C(=O)NC2(C)CCS(=O)(=O)C2)cc(-c2ccc(C(F)(F)F)cc2)c1` (racemic) [Example 49, (RS)—N-(3-methyl-1,1-dioxothiolan-3-yl)-3-(5-propan-2-yltetrazol-1-yl)-5-[4-(trifluoromethyl)phenyl]benzamide] gave a melting point of 117 °C and a Kb [1] of 0.33 µM.

Molecule `Cc1nnnn1-c1cc(C(=O)NC(C)(C)C(F)(F)F)cc(-c2ccc(Cl)cc2)c1` [Example 70, 3-(4-Chlorophenyl)-5-(5-methyltetrazol-1-yl)-N-(1,1,1-trifluoro-2-methylpropan-2-yl)-benzamide] has a melting point of 96 °C and a Kb [1] of 0.23 µM.

Molecule `CC(C)(C)NC(=O)c1cc(-c2ccc(F)cc2)cc(-n2nnnc2C2CC2)c1` [Example 69, N-tert-Butyl-3-(5-cyclopropyltetrazol-1-yl)-5-(4-fluorophenyl)-benzamide] has a melting point of 82 °C and a Kb [1] of 0.15 µM.

In the case of `Cc1cc(-c2cc(C(=O)NC(C)(C)C(F)(F)F)cc(-n3nnnc3C(C)(C)C)c2)ccc1F` [Example 118, 3-(5-tert-Butyltetrazol-1-yl)-5-(4-fluoro-3-methylphenyl)-N-(1,1,1-trifluoro-2-methylpropan-2-yl)-benzamide], the melting point was 203 °C and the Kb [1] was 0.54 µM.

Molecule `Cc1ccc(-c2cc(C(=O)NC(C)(C)C3CC3)cc(-n3nnnc3C(C)(C)C)c2)cc1F` [Example 115, 3-(5-tert-Butyltetrazol-1-yl)-N-(2-cyclopropylpropan-2-yl)-5-(3-fluoro-4-methylphenyl)-benzamide] has a melting point of 92 °C and a Kb [1] of 0.52 µM.

`CC(C)c1nnnn1-c1cc(C(=O)NC(C)(C)C(F)(F)F)cc(-c2ccc(Cl)cc2)c1` [Example 52, 3-(4-Chlorophenyl)-5-(5-propan-2-yltetrazol-1-yl)-N-(1,1,1-trifluoro-2-methylpropan-2-yl)-benzamide] gave a melting point of 90 °C and a Kb [1] of 0.34 µM.

`CCC(C)(C)NC(=O)c1cc(-c2ccc(F)c(F)c2)cc(-n2cnnn2)c1` [Example 39, 3-(3,4-Difluorophenyl)-N-(2-methylbutan-2-yl)-5-(tetrazol-1-yl)-benzamide] gave a melting point of 189 °C and a Kb [1] of 0.2 µM.

`CCC(C)(C)NC(=O)c1cc(-c2ccc(C)c(F)c2)cc(-n2cnnn2)c1` [Example 5, 3-(3-Fluoro-4-methylphenyl)-N-(2-methylbutan-2-yl)-5-(tetrazol-1-yl)-benzamide] gave a melting point of 161 °C and a Kb [1] of 0.25 µM.

Work on `Cc1nnnn1-c1cc(C(=O)NC(C)(C)CO)cc(-c2ccc(Cl)cc2)c1` [Example 64, 3-(4-Chlorophenyl)-N-(1-hydroxy-2-methylpropan-2-yl)-5-(5-methyl-tetrazol-1-yl)-benzamide] yielded a melting point of 193 °C and a Kb [1] of 0.42 µM.

For `CCC(C)(C)NC(=O)c1cc(-c2ccc(F)c(C)c2)cc(-n2cnnn2)c1` [Example 6, 3-(4-Fluoro-3-methylphenyl)-N-(2-methylbutan-2-yl)-5-(tetrazol-1-yl)-benzamide], the melting point was 120 °C and the Kb [1] was 0.41 µM.

Work on `CC(C)(C)c1nnnn1-c1cc(C(=O)NC(C)(C)C2CC2)cc(-c2ccc(C3CC3)cc2)c1` [Example 114, 3-(5-tert-Butyltetrazol-1-yl)-5-(4-cyclopropylphenyl)-N-(2-cyclopropylpropan-2-yl)-benzamide] yielded a melting point of 95 °C and a Kb [1] of 0.62 µM.

Work on `CCC(C)(C)NC(=O)c1cc(-c2ccc(C)cc2)cc(-n2nnnc2C2CC2)c1` [Example 27, 3-(5-Cyclopropyltetrazol-1-yl)-N-(2-methylbutan-2-yl)-5-(4-methylphenyl)-benzamide] yielded a melting point of 75 °C and a Kb [1] of 0.2 µM.

For `CC(C)(C)NC(=O)c1cc(-c2ccc(C3CC3)cc2)cc(-n2nnnc2C(C)(C)C)c1` [Example 107, N-tert-Butyl-3-(5-tert-butyltetrazol-1-yl)-5-(4-cyclopropylphenyl)-benzamide], the melting point was 115 °C and the Kb [1] was 0.28 µM.

With `CC(C)(NC(=O)c1cc(-c2ccc(Cl)cc2)cc(-n2cnnn2)c1)C(F)(F)F` [Example 41, 3-(4-Chlorophenyl)-5-(tetrazol-1-yl)-N-(1,1,1-trifluoro-2-methylpropan-2-yl)-benzamide] the melting point was 187 °C and the Kb [1] was 0.35 µM.

With `CC(C)(CO)NC(=O)c1cc(-c2ccc(Cl)cc2)cc(-n2nnnc2C2CC2)c1` [Example 58, 3-(4-Chlorophenyl)-5-(5-cyclopropyltetrazol-1-yl)-N-(1-hydroxy-2-methylpropan-2-yl)-benzamide] the melting point was 110 °C and the Kb [1] was 0.36 µM.

With `CCC(C)(C)NC(=O)c1cc(-c2ccc(F)cc2)cc(-n2cnnn2)c1` [Example 1, 3-(4-Fluorophenyl)-N-(2-methylbutan-2-yl)-5-(tetrazol-1-yl)-benzamide] the melting point was 200 °C and the Kb [1] was 0.145 µM.

`CCC(C)(C)NC(=O)c1cc(-c2ccc(Cl)c(Cl)c2)cc(-n2cnnn2)c1` [Example 38, 3-(3,4-Dichlorophenyl)-N-(2-methylbutan-2-yl)-5-(tetrazol-1-yl)-benzamide] gave a melting point of 206 °C and a Kb [1] of 0.7 µM.

`CC(C)(C)NC(=O)c1cc(-c2ccc(C(F)(F)F)cc2)cc(-n2nnnc2C(C)(C)C)c1` [Example 104, N-tert-Butyl-3-(5-tert-butyltetrazol-1-yl)-5-[4-(trifluoromethyl)-phenyl]-benzamide] gave a melting point of 241 °C and a Kb [1] of 0.19 µM.

`CC(C)(C)NC(=O)c1cc(-c2ccc(Cl)cc2)cc(-n2nnnc2C(C)(C)C)c1` [Example 91, N-tert-Butyl-3-(5-tert-butyltetrazol-1-yl)-5-(4-chlorophenyl)-benzamide] gave a melting point of 230.5 °C and a Kb [1] of 0.087 µM.

Work on `CC(C)c1nnnn1-c1cc(C(=O)NC(C)(C)C)cc(-c2ccc(C(F)(F)F)cc2)c1` [Example 47, N-tert-Butyl-3-(5-propan-2-yltetrazol-1-yl)-5-[4-(trifluoromethyl)-phenyl]-benzamide] yielded a melting point of 92 °C and a Kb [1] of 0.27 µM.

Molecule `Cc1nnnn1-c1cc(C(=O)NC(C)(C)CO)cc(-c2ccc(F)cc2)c1` [Example 84, 3-(4-Fluorophenyl)-N-(1-hydroxy-2-methylpropan-2-yl)-5-(5-methyltetrazol-1-yl)-benzamide] has a melting point of 85 °C and a Kb [1] of 0.78 µM.

In the case of `CC(C)(NC(=O)c1cc(-c2ccc(F)cc2)cc(-n2nnnc2C2CC2)c1)C1CC1` [Example 72, N-(2-Cyclopropylpropan-2-yl)-3-(5-cyclopropyltetrazol-1-yl)-5-(4-fluorophenyl)-benzamide], the melting point was 73 °C and the Kb [1] was 0.38 µM.

Work on `CC1(NC(=O)c2cc(-c3ccc(Cl)cc3)cc(-n3nnnc3C(C)(C)C)c2)CCS(=O)(=O)C1` (racemic) [Example 89, (RS)-3-(5-tert-Butyltetrazol-1-yl)-5-(4-chlorophenyl)-N-(3-methyl-, 1-dioxothiolan-3-yl)benzamide] yielded a melting point of 187 °C and a Kb [1] of 0.25 µM.

For `Cc1nnnn1-c1cc(C(=O)NC2(C)CCS(=O)(=O)C2)cc(-c2ccc(Cl)cc2)c1` (racemic) [Example 65, (RS)-3-(4-Chlorophenyl)-N-(3-methyl-1,1-dioxothiolan-3-yl)-5-(5-methyltetrazol-1-yl)-benzamide], the melting point was 155.5 °C and the Kb [1] was 0.36 µM.

Molecule `CCc1nnnn1-c1cc(C(=O)NC(C)(C)C)cc(-c2ccc(C)cc2)c1` [Example 30, N-tert-Butyl-3-(5-ethyltetrazol-1-yl)-5-(4-methylphenyl)-benzamide] has a melting point of 73 °C and a Kb [1] of 0.21 µM.

`Cc1cc(-c2cc(C(=O)NC(C)(C)C3CC3)cc(-n3nnnc3C(C)(C)C)c2)ccc1F` [Example 110, 3-(5-tert-Butyltetrazol-1-yl)-N-(2-cyclopropylpropan-2-yl)-5-(4-fluoro-3-methylphenyl)-benzamide] showed a melting point of 88 °C and a Kb [1] of 0.49 µM.

`CCC(C)(C)NC(=O)c1cc(-c2ccc(Cl)cc2)cc(-n2nnnc2C(C)C)c1` [Example 42, 3-(4-Chlorophenyl)-N-(2-methylbutan-2-yl)-5-(5-propan-2-yltetrazol-1-yl)-benzamide] gave a melting point of 85 °C and a Kb [1] of 0.16 µM.

With `CC(C)c1nnnn1-c1cc(C(=O)NC(C)(C)C2CC2)cc(-c2ccc(F)cc2)c1` [Example 82, N-(2-Cyclopropylpropan-2-yl)-3-(4-fluorophenyl)-5-(5-propan-2-yltetrazol-1-yl)-benzamide] the melting point was 75 °C and the Kb [1] was 0.16 µM.

Molecule `CCC(C)(C)NC(=O)c1cc(-c2ccc(F)cc2)cc(-n2nnnc2C(C)C)c1` [Example 60, 3-(4-Fluorophenyl)-N-(2-methylbutan-2-yl)-5-(5-propan-2-yltetrazol-1-yl)-benzamide] has a melting point of 69 °C and a Kb [1] of 0.21 µM.
